Square brackets hold non-standard residues; d marks the D form. Side chains are listed from the residue outwards. Peptide text beside a SMILES is read from it. * marks the point of attachment. C18 diacid = O=C(O)CCCCCCCCCCCCCCCCC(=O)*; Phe(2-F) = N[C@@H](Cc1ccccc1F)C(=O)O; NMeY = CN[C@@H](Cc1ccc(O)cc1)C(=O)O; αMeF = C[C@](N)(Cc1ccccc1)C(=O)O; Iva = CC[C@](C)(N)C(=O)O; Aib = CC(C)(N)C(=O)O
Columns and labels:
human NPY2R = target: T1, human NPY2R (Homo sapiens, UniProt P49146); assay: Reporter assay of human NPY2R gene (agonist activity, decrease in intracellular cAMP as index); format: cell-based; details: Cre-luc reporter, hNPY2R CHO-K1 cells, forskolin 1.2 μM, 4 hours; read-out: Agonist activity (EC50) hY2R
T1 construct: expressed in transfected cells; host or cells: CHO-K1 Cre-luc reporter cells (pAKKO1114/hNPY2R#481 No. 88 cells)
T1 sequence (P49146 1-381): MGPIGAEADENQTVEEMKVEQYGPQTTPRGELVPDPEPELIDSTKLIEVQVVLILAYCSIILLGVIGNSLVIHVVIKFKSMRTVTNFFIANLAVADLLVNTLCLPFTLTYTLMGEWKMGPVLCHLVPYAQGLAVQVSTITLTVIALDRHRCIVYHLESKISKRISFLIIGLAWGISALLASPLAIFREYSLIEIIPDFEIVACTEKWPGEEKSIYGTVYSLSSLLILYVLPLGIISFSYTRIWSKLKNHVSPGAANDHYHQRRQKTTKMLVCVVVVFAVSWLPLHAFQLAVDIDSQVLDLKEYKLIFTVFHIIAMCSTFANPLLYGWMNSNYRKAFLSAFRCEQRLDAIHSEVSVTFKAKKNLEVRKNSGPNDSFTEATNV
From the text: Evaluation of Agonist Activity Against Human NPY2R, Human GIPR, and Human GLP-1R Using Change in Intracellular cAMP Concentration as Index
The human NPY2R gene having a sequence identical to the sequence of GenBank Accession No. AC104407 was cloned into pAKKO1114 vector to prepare hNPY2R/pAKKO1114. Next, pGL4.29 (Promega) was introduced to CHO-K1 cells, which were then screened with hygromycin to construct Cre-luc reporter cells. These cells were cotransfected with hNPY2R/pAKKO1114 and pcDNA3.1 (Life Technologies Corp.), and the cells were screened with geneticin. Next, a cell line induced to express luciferase, i.e., pAKKO1114/hNPY2R#481 No. 88 cells, were selected from the obtained transformants by the addition of human PYY (3-36).
The pAKKO1114/hNPY2R#481 No. 88 cells were inoculated at a cell density of 25 μL/well (5,000 cells/well) to a 384-well white plate (Corning, 3570), and cultured overnight in Ham F12 medium containing 10% fetal bovine serum, 100 U/mL penicillin and 100 μg/mL streptomycin in a CO2 incubator of 37° C. On the next day, the medium was removed, and an assay medium (Ham F12 medium containing 0.1% BSA, 100 U/mL penicillin and 100 μg/mL streptomycin) containing forskolin (final concentration: 1.2 μM) was added at a concentration of 25 μL/well to the cells. Next, an assay medium containing a test compound was added at a concentration of 5 μL/well to the cells, and the resultant cells were incubated for 4 hours in a CO2 incubator of 37° C. to give the final concentration of 1 μM. SteadyGlo (Promega) was added thereto at a concentration of 30 μL/well, and the mixture was left standing for 20 minutes with light shielded. The luciferase activity was measured using a plate reader Envision (PerkinElmer). The luciferase activity from the addition of DMSO was defined as 100%, and the luciferase activity from the addition of 1 μM human PYY(3-36) instead of the test compound was defined as 0%. The NPY2R agonist activity was calculated with a decrease in intracellular cAMP concentration as an index.

male C57BL/6J mouse = assay: Evaluation of feeding suppressive action in mice; format: in vivo; details: 3-days cumulative food consumption vs solvent control
In short: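 Male C57BL/6J mice, 8-9 weeks, ad libitum fed, given compound (30 or 100 nmol/2 mL in 10% DMSO saline) s.c. at 2 mL/kg once daily for 3 days. Cumulative 3-day food consumption measured by weighing; suppression rate (%) calculated relative to vehicle controls.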

| Structure (SMILES) | EC50 (human NPY2R) [nM] | Rate of feeding suppression (%) (male C57BL/6J mouse; 100 nmol/kg s.c. once a day for 3 days) | Rate of feeding suppression (%) (male C57BL/6J mouse; 30 nmol/kg s.c. once a day for 3 days) |
| --- | --- | --- | --- |
| CC[C@H](C)[C@H](NC(=O)C(C)(C)NC(=O)[C@H](CCCCNC(=O)CNC(=O)CNC(=O)CNC(=O)CNC(=O)CCCCCCCCCCCCCCCCC(=O)O)NC(=O)[C@H](CC(=O)O)NC(=O)[C@H](CO)NC(=O)[C@@H](NC(=O)[C@](C)(Cc1ccccc1)NC(=O)[C@@H](NC(=O)CNC(=O)[C@H](CCC(=O)O)NC(=O)C(C)(C)NC(=O)[C@@H](N)Cc1ccc(O)cc1)[C@@H](C)O)[C@@H](C)O)C(=O)NC(C)(C)C(=O)N[C@@H](CC(C)C)C(=O)N[C@@H](CC(=O)O)C(=O)N[C@@H](CCCCN)C(=O)N[C@@H](CCC(N)=O)C(=O)N[C@@H](C)C(=O)N[C@@H](CCC(N)=O)C(=O)N[C@@](C)(CC)C(=O)N[C@@H](CCC(=O)O)C(=O)N[C@@H](Cc1ccccc1)C(=O)N[C@H](C(=O)N[C@@H](CCCNC(=N)N)C(=O)N[C@@H](Cc1c[nH]cn1)C(=O)N[C@@H](CC(C)C)C(=O)N[C@@H](CC(C)C)C(=O)N[C@@H](CC(N)=O)C(=O)N[C@@H](CCCCN)C(=O)NC(C)(C)C(=O)N[C@H](C(=O)N[C@@H](CCCNC(=N)N)C(=O)N[C@@H](CCC(N)=O)C(=O)N[C@@H](CCCNC(=N)N)C(=O)N[C@@H](Cc1ccccc1F)C(N)=O)[C@@H](C)O)C(C)C [Example 2] (H-Y[Aib]EGT[αMeF]TSDK([Gly-Gly-Gly-Gly-C18 diacid])[Aib]I[Aib]LDKQAQ[Iva]EFVRHLLNK[Aib]TRQR[Phe(2-F)]-NH2) | 2.1 | −77.3 | – |
| CC[C@H](C)[C@H](NC(=O)C(C)(C)NC(=O)[C@H](CCCCNC(=O)CNC(=O)CNC(=O)CNC(=O)CNC(=O)CCCCCCCCCCCCCCCCC(=O)O)NC(=O)[C@H](CC(=O)O)NC(=O)[C@H](CO)NC(=O)[C@@H](NC(=O)[C@](C)(Cc1ccccc1)NC(=O)[C@@H](NC(=O)CNC(=O)[C@H](CCC(=O)O)NC(=O)C(C)(C)NC(=O)[C@@H](N)Cc1ccc(O)cc1)[C@@H](C)O)[C@@H](C)O)C(=O)NC(C)(C)C(=O)N[C@@H](CC(C)C)C(=O)N[C@@H](CC(=O)O)C(=O)N[C@@H](CCCCN)C(=O)N[C@@H](CCC(N)=O)C(=O)N[C@@H](CCCNC(=N)N)C(=O)N[C@@H](CCC(N)=O)C(=O)N[C@@](C)(CC)C(=O)N[C@@H](CCC(=O)O)C(=O)N[C@@H](Cc1ccccc1)C(=O)N[C@H](C(=O)N[C@@H](CCCNC(=N)N)C(=O)N[C@@H](Cc1c[nH]cn1)C(=O)N[C@@H](CC(C)C)C(=O)N[C@@H](CC(C)C)C(=O)N[C@@H](CC(N)=O)C(=O)N[C@@H](CCCCN)C(=O)NC(C)(C)C(=O)N[C@H](C(=O)N[C@@H](CCCNC(=N)N)C(=O)N[C@@H](CCC(N)=O)C(=O)N[C@@H](CCCNC(=N)N)C(=O)N[C@@H](Cc1ccc(O)cc1)C(N)=O)[C@@H](C)O)C(C)C [Example 8] (H-Y[Aib]EGT[αMeF]TSDK([Gly-Gly-Gly-Gly-C18 diacid])[Aib]I[Aib]LDKQRQ[Iva]EFVRHLLNK[Aib]TRQRY-NH2) | 2.1 | – | – |
| CC[C@H](C)[C@H](NC(=O)[C@H](CO)NC(=O)[C@H](CCCCNC(=O)CNC(=O)CNC(=O)CNC(=O)CNC(=O)CCCCCCCCCCCCCCCCC(=O)O)NC(=O)[C@H](CC(=O)O)NC(=O)[C@H](CO)NC(=O)[C@@H](NC(=O)[C@](C)(Cc1ccccc1)NC(=O)[C@@H](NC(=O)CNC(=O)[C@H](CCC(=O)O)NC(=O)C(C)(C)NC(=O)[C@@H](N)Cc1ccc(O)cc1)[C@@H](C)O)[C@@H](C)O)C(=O)NC(C)(C)C(=O)N[C@@H](CC(C)C)C(=O)N[C@@H](CC(=O)O)C(=O)N[C@@H](CCCCN)C(=O)N[C@@H](CCC(N)=O)C(=O)N[C@@H](CCCNC(=N)N)C(=O)N[C@@H](CCC(N)=O)C(=O)N[C@@](C)(CC)C(=O)N[C@@H](CCC(=O)O)C(=O)N[C@@H](Cc1ccccc1)C(=O)N[C@H](C(=O)N[C@@H](CCCNC(=N)N)C(=O)N[C@@H](Cc1c[nH]cn1)C(=O)N[C@@H](CC(C)C)C(=O)N[C@@H](CC(C)C)C(=O)N[C@@H](CC(N)=O)C(=O)N[C@@H](CCCCN)C(=O)NC(C)(C)C(=O)N[C@H](C(=O)N[C@@H](CCCNC(=N)N)C(=O)N[C@@H](CCC(N)=O)C(=O)N[C@@H](CCCNC(=N)N)C(=O)N[C@@H](Cc1ccc(O)cc1)C(N)=O)[C@@H](C)O)C(C)C [Example 16] (H-Y[Aib]EGT[αMeF]TSDK([Gly-Gly-Gly-Gly-C18 diacid])SI[Aib]LDKQRQ[Iva]EFVRHLLNK[Aib]TRQRY-NH2) | 2.6 | – | – |
| CC[C@H](C)[C@H](NC(=O)C(C)(C)NC(=O)[C@H](CCCCNC(=O)CNC(=O)CNC(=O)CNC(=O)CNC(=O)CCCCCCCCCCCCCCCCC(=O)O)NC(=O)[C@H](CC(=O)O)NC(=O)[C@H](CO)NC(=O)[C@@H](NC(=O)[C@](C)(Cc1ccccc1)NC(=O)[C@@H](NC(=O)CNC(=O)[C@H](CCC(=O)O)NC(=O)C(C)(C)NC(=O)[C@H](Cc1ccc(O)cc1)NC)[C@@H](C)O)[C@@H](C)O)C(=O)NC(C)(C)C(=O)N[C@@H](CC(C)C)C(=O)N[C@@H](CCC(=O)O)C(=O)N[C@@H](CCCCN)C(=O)N[C@@H](CCC(N)=O)C(=O)N[C@@H](CCCNC(=N)N)C(=O)N[C@@H](CCC(N)=O)C(=O)N[C@@](C)(CC)C(=O)N[C@@H](CCC(=O)O)C(=O)N[C@@H](Cc1ccccc1)C(=O)N[C@H](C(=O)N[C@@H](CCCNC(=N)N)C(=O)N[C@@H](Cc1c[nH]cn1)C(=O)N[C@@H](CC(C)C)C(=O)N[C@@H](CC(C)C)C(=O)N[C@@H](CC(N)=O)C(=O)N[C@@H](CCCCN)C(=O)NC(C)(C)C(=O)N[C@H](C(=O)N[C@@H](CCCNC(=N)N)C(=O)N[C@@H](CCC(N)=O)C(=O)N[C@@H](CCCNC(=N)N)C(=O)N[C@@H](Cc1ccc(O)cc1)C(N)=O)[C@@H](C)O)C(C)C [Example 34] (H-[NMeY][Aib]EGT[αMeF]TSDK([Gly-Gly-Gly-Gly-C18 diacid])[Aib]I[Aib]LEKQRQ[Iva]EFVRHLLNK[Aib]TRQRY-NH2) | 1.5 | – | −39.9 |

— US10501516B2, “Peptide compound” (TAKEDA PHARMACEUTICAL COMPANY LIMITED, priority 2016, dated 2019)
